As a reminder, the GI50 is the concentration at which growth is held to half of that of the control.

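Following 48 hours of exposure in 96-well plates, responses at five concentrations were used to interpolate endpoints linearly. GI50 is the concentration that inhibits growth by half.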 Calls of active or inactive are those of the source. Cut-off read from the data, not from the text of the source: active = GI50 up to about 1.1 µM and inactive = higher.

Among the test systems are 786-0; A498; HCT-116; HCT-15; HL-60; HOP-92; Hs-578T; Malme-3M; OVCAR-4; OVCAR-5; SF-295; SK-MEL-28; SN12C; SNB-19; SR; UACC-257; UACC-62; UO-31; MCF7; OVCAR-3.
Holding throughout (assay): DTP human tumour cell line panel, 48 h

`c1ccc(/N=C2\SC(=NNc3ccccc3)S\C2=N/c2ccccc2)cc1`: the GI50 was > 100 µM (inactive) in the assay with 786-0; > 100 µM (inactive) in the assay on A498; 50.4 µM (inactive) with HCT-116; more than 100 µM with HCT-15; > 100 µM (inactive) in the assay with HL-60; 70.8 µM (inactive) in the assay on HOP-92. Besides, the GI50 in the assay on Hs-578T was 32.8 µM (inactive); in the assay with Malme-3M, > 100 µM (inactive); in the assay with OVCAR-4, > 100 µM (inactive); in the assay with OVCAR-5, 98.2 µM (inactive); in the assay on SF-295 it was 25.6 µM (inactive); in the assay on SK-MEL-28, > 100 µM (inactive). Also, the GI50 in the assay with SN12C is 79.3 µM (inactive); in the assay with SNB-19 it was 72.6 µM (inactive); in the assay on SR, > 100 µM (inactive); in the assay on UACC-257, 65.5 µM (inactive); with UACC-62, 4.13 µM (inactive); with UO-31 it was > 100 µM (inactive).

With `CCOC(=O)/C(C#N)=C(/NNc1ccccc1)c1ccncc1C(=O)O`, the GI50 in the assay on 786-0 is > 100 µM (inactive); in the assay with A498 it was > 100 µM (inactive); with HCT-116, > 100 µM (inactive); in the assay on HCT-15 it was more than 22.7 µM; with HL-60, 2.75 µM (inactive); with HOP-92, > 100 µM (inactive). Besides, the GI50 was > 100 µM (inactive) with Hs-578T; > 64.9 µM (inactive) in the assay with MCF7; > 100 µM (inactive) with Malme-3M; > 100 µM (inactive) in the assay with OVCAR-3; > 100 µM (inactive) with OVCAR-4; > 72.1 µM (inactive) in the assay on OVCAR-5. Moreover, the GI50 in the assay with SF-295 was 5.47 µM (inactive); in the assay on SK-MEL-28, > 39.1 µM (inactive); in the assay on SN12C, > 100 µM (inactive); in the assay with SNB-19, > 100 µM (inactive); in the assay with UACC-257, 26.2 µM (inactive); in the assay with UACC-62 it was 5.15 µM (inactive). For the same molecule, the GI50 in the assay on UO-31 is 4.49 µM (inactive).

Take `Oc1ccc2c(c1)OCC(O)(c1ccccc1O)C2` (centres undefined): the GI50 is > 100 µM (inactive) with 786-0; > 100 µM (inactive) in the assay with A498; > 100 µM (inactive) in the assay on HCT-116; more than 100 µM in the assay on HCT-15; > 100 µM (inactive) in the assay on HL-60; > 100 µM (inactive) with HOP-92. Moreover, the GI50 is 97.5 µM (inactive) in the assay with Hs-578T; > 100 µM (inactive) in the assay on MCF7; > 100 µM (inactive) in the assay on OVCAR-3; > 100 µM (inactive) in the assay on OVCAR-4; > 100 µM (inactive) with OVCAR-5; > 100 µM (inactive) in the assay on SF-295. In addition, the GI50 with SK-MEL-28, with SN12C, in the assay with SNB-19, in the assay with UACC-257, with UACC-62 and in the assay on UO-31 was > 100 µM (inactive) in each case.

Turning to `NC(=O)NC(=O)Nc1ccc(Br)cc1`, the GI50 was 20.5 µM (inactive) in the assay with 786-0; 9.79 µM (inactive) in the assay on A498; 17.3 µM (inactive) in the assay with HCT-116; 28 µM in the assay on HCT-15; 4.34 µM (inactive) with HL-60; > 100 µM (inactive) in the assay with HOP-92. In addition, the GI50 in the assay on Hs-578T is > 100 µM (inactive); with MCF7, 5.45 µM (inactive); with Malme-3M it was > 15.8 µM (inactive); in the assay with OVCAR-4, > 24.3 µM (inactive); in the assay on OVCAR-5, > 21.1 µM (inactive); in the assay with SF-295 it was 14.7 µM (inactive). The GI50 is 6.14 µM (inactive) in the assay on SK-MEL-28; > 67.5 µM (inactive) in the assay on SN12C; > 11.9 µM (inactive) in the assay with SNB-19; > 27.1 µM (inactive) with UACC-257; 2.92 µM (inactive) in the assay on UACC-62; 22.8 µM (inactive) in the assay on UO-31.

In the case of `COC(=O)/C(=N\Nc1nnc(C)n1N)C(C#N)c1ccccc1` (centres undefined), the GI50 in the assay with 786-0 is > 39.9 µM (inactive); in the assay on HCT-116, > 73.1 µM (inactive); in the assay on HCT-15 it was 56.5 µM; in the assay on HL-60, > 100 µM (inactive); in the assay on HOP-92 it was > 100 µM (inactive); with Hs-578T it was > 100 µM (inactive). The GI50 is 22.3 µM (inactive) with Malme-3M; > 100 µM (inactive) in the assay on OVCAR-3; > 40 µM (inactive) in the assay on OVCAR-4; > 100 µM (inactive) in the assay with OVCAR-5; > 100 µM (inactive) in the assay on SF-295; > 100 µM (inactive) in the assay on SK-MEL-28. In addition, the GI50 is > 48.4 µM (inactive) with SN12C; > 100 µM (inactive) in the assay on SNB-19; 40.6 µM (inactive) with UACC-257; > 100 µM (inactive) with UACC-62; > 91.4 µM (inactive) in the assay with UO-31.

On to `CCOC(=O)N1c2ccccc2S(=O)(=O)c2ccccc21`, for which the GI50 was > 100 µM (inactive) in the assay with 786-0; > 100 µM (inactive) in the assay with A498; > 100 µM (inactive) in the assay on HCT-116; more than 100 µM in the assay on HCT-15; > 100 µM (inactive) in the assay on HL-60; > 100 µM (inactive) in the assay on Hs-578T. Besides, the GI50 with MCF7, in the assay with OVCAR-3, in the assay on OVCAR-4, in the assay on OVCAR-5, with SF-295 and in the assay with SK-MEL-28 was > 100 µM (inactive) in each case. Moreover, the GI50 in the assay with SN12C, with SNB-19, in the assay with UACC-257, in the assay with UACC-62 and in the assay on UO-31 was > 100 µM (inactive) each time.

With `CCc1n[nH]c(=O)n1NC(=O)c1ccccc1C(=O)O`, the GI50 with 786-0 is > 100 µM (inactive); in the assay on HCT-116, > 100 µM (inactive); with HCT-15 it was more than 100 µM; with HOP-92, > 100 µM (inactive); in the assay on MCF7, > 100 µM (inactive); in the assay with OVCAR-3, > 100 µM (inactive). Moreover, the GI50 with OVCAR-4, with OVCAR-5, in the assay on SF-295, with SK-MEL-28, in the assay on SN12C and in the assay on SNB-19 was > 100 µM (inactive) in each case. Also, the GI50 in the assay on SR, with UACC-257, in the assay on UACC-62 and in the assay on UO-31 was > 100 µM (inactive) in each case.

In the case of `O=C(Nc1ccc(Cl)cc1)C(=O)C1=C(O)c2ccccc2OC1`, the GI50 in the assay on 786-0 was > 100 µM (inactive); with A498 it was > 100 µM (inactive); in the assay with HCT-116, > 100 µM (inactive); with HCT-15, more than 100 µM; with HL-60, > 100 µM (inactive); with HOP-92, > 100 µM (inactive). Further, the GI50 is > 100 µM (inactive) with Hs-578T; > 100 µM (inactive) in the assay with MCF7; 0.665 µM (active) with Malme-3M; > 100 µM (inactive) with OVCAR-3; > 100 µM (inactive) with OVCAR-4; > 100 µM (inactive) with OVCAR-5. The GI50 in the assay with SF-295, in the assay on SK-MEL-28, with SN12C, with SNB-19, with UACC-257 and in the assay on UACC-62 was > 100 µM (inactive) in each case. The GI50 in the assay on UO-31 was > 100 µM (inactive).

Regarding `CC1(N2CCOCC2)CC2C(=[N+]1[O-])CCC/C2=N/O` (centres undefined), the GI50 in the assay with 786-0 was > 100 µM (inactive); with HCT-116, > 100 µM (inactive); with HCT-15, more than 100 µM; with Hs-578T, > 100 µM (inactive); with MCF7, > 100 µM (inactive); in the assay with Malme-3M it was > 100 µM (inactive). Also, the GI50 in the assay with OVCAR-3, in the assay with OVCAR-4, in the assay on OVCAR-5, with SF-295, in the assay with SK-MEL-28 and in the assay with SN12C was > 100 µM (inactive) throughout. Besides, the GI50 in the assay with SNB-19, in the assay with SR, in the assay with UACC-257, with UACC-62 and in the assay on UO-31 was > 100 µM (inactive) throughout.

Consider `S=C(S)N1CCN(c2ccc(Cl)c(Cl)c2)CC1`, for which the GI50 in the assay with 786-0 was 28.1 µM (inactive); in the assay on A498, 18 µM (inactive); in the assay with HCT-116, 13.9 µM (inactive); with HCT-15, 34.2 µM; in the assay on HL-60 it was 20.9 µM (inactive); in the assay with HOP-92 it was 22.3 µM (inactive). The GI50 was 23.4 µM (inactive) with Hs-578T; 25.8 µM (inactive) in the assay on MCF7; 24.2 µM (inactive) in the assay with Malme-3M; 21.3 µM (inactive) in the assay on OVCAR-3; 29.9 µM (inactive) with OVCAR-5; 28.7 µM (inactive) with SF-295. Moreover, the GI50 is 25.4 µM (inactive) in the assay on SK-MEL-28, 30.1 µM (inactive) with SN12C, 42.5 µM (inactive) in the assay with SNB-19 and > 10 µM (inactive) in the assay on UACC-257.

As to `CC1C(c2ccccc2)O[B-](F)(c2ccccc2)[NH+]1C` (centres undefined), the GI50 in the assay on 786-0 is > 100 µM (inactive); in the assay on A498, > 100 µM (inactive); with HCT-116, > 100 µM (inactive); with HCT-15, more than 100 µM; in the assay on HL-60 it was > 100 µM (inactive); with HOP-92 it was > 100 µM (inactive). In addition, the GI50 in the assay on MCF7, in the assay on Malme-3M, in the assay with OVCAR-3, in the assay with OVCAR-4, in the assay with OVCAR-5 and in the assay with SF-295 was > 100 µM (inactive) throughout. The GI50 with SK-MEL-28, in the assay with SN12C, in the assay with SNB-19, with SR, in the assay with UACC-257 and with UACC-62 was > 100 µM (inactive) each time. The GI50 with UO-31 was > 100 µM (inactive).

For the origin of these results see ChEMBL document CHEMBL1201862, “PubChem BioAssay data set” (2004).
